B1: IL-33: mouse rIL-33 (R&D Systems) given intranasally or added to ILC2 cultures (protein, UniProt Q8BVZ5 1-266, looked up)
Interleukin-33: MRPRMKYSNSKISPAKFSSTAGEALVPPCKIRRSQQKTKEFCHVYCMRLRSGLTIRKETSYFRKEPTKRYSLKSGTKHEENFSAYPRDSRKRSLLGSIQAFAASVDTLSIQGTSLLTQSPASLSTYNDQSVSFVLENGCYVINVDDSGKDQEQDQVLLRYYESPCPASQSGDGVDGKKLMVNMSPIKDTDIWLHANDKDYSVELQRGDVSPPEQAFFVLHKKSSDFVSFECKNLPGTYIGVKDNQLALVEEKDESCNNIMFKLSKI

Key:
C57/BL6 Wt mice = assay: IL-33-induced pulmonary inflammation (intranasal r-IL-33 with or without LA/OA) in Wt mice; format: in vivo, mouse; settings: for pulmonary inflammation: agent given alone
Protocol: (§1) C57/BL6 Wt and Pla2g5-null mice^46, 47 (9-12 wk-old males) received 25 μg of Alternaria haracter extract (Greer Laboratories, Lenoir, N.C.) in 20 uL of PBS or PBS alone intranasally on days 0, 3, 6 and 9 and euthanized 18 hours later^1 or a single dose of 100 μg and were euthanized after 1 h or 3 h^2. For IL-33-induced pulmonary inflammation, Wt and Pla2g5-null naïve mice were given mouse rIL-33 (R&D Systems, Minneapolis, Minn.) intranasally (i.n.) 100 ng/dose on days 0, 3, 6 and 9 with or without LA (132 nM)^28 or OA (106 nM), and mice were euthanized 18 hours after the last dose.
(§2) Lung were manually chopped to approximately 10 mm pieces, then digested in RPMI containing 428 U/ml Collagenase IV (Worthington, Lakewood, N.J.) and 20 mg/ml DNAse I (Roche, Mannheim, Germany) (30 min, 37° C.). After red cell lysis, the obtained cell suspension from single mouse was washed, and counted. After washing, cells were blocked (1 h, 4° C.) with 1% of rat anti mouse CD16/CD32 (BD Biosciences, San Jose, Calif.) and 10% donkey serum and then stained (1 h, 4° C.) with appropriate Abs. Mouse cells were stained with CD45 PercPCy5 (clone 30-F11, BioLegend, San Diego, Calif.), CD19 FITC (6D5, Biolegend), CD3 FITC (145-2C11, BioLegend), CD11b FITC (M1/70, BioLegend), CD11c PE-Cy7 FITC (N418, BioLegend), Ly6G/C FITC (RB6-8C5, eBiosciences), Nk1.1 FITC (PK136, Biolegend), FceR1 FITC (MAR-1, Biolegend), Siglec-F APC (E50-2440, BD Bioscience), Thy 1.2 APC (53-2.1, eBioscience, San Diego, Ca), ICOS (C398.4A, eBiosciences), Sca-1 (D7, eBioscieces), CD25 (PC61, eBiosciences), ST2 biotin (clone DJ8, MD Bioscience) followed by PE streptavidin (eBiosciences). In selected experiments cells were fixed with 4% paraformaldehyde (7 min, 21° C.), washed, permeabilized with 0.1% saponin (SigmaAldrich, St Louis, Ca) (7 min, 21° C.) and stained with CD68 APC (FA-11, AbD Serotec, Raleigh, Nc), IL-5 PE (TRFKS, Biolegend), IL-13 (eBio13A eBiosciences), IL-33 PE (396118, R&D Systems, Minneapolis, Minn.), rabbit polyclonal anti murine RELM-a (Peprotech, Rocky Hill N.J.)) and corresponding isotypes as controls. Acquisition was performed on a FACSCanto flow cytometer with FACSDiva software (BD Biosciences), and data were analyzed with FlowJo (Tree Star, Ashland, Oreg.).

Pla2g5-null ILC2 = assay: In-vitro stimulation of sorted Pla2g5-null ILC2, intracellular IL-5 by flow cytometry; format: cell-based, mouse; settings: LA 200 μM, 8 h; for percentage of IL-5-expressing ILC2s: OA 200 μM or IL-33 30 ng/ml alone; for IL-33-induced increase in IL-5 positive ILC2s, effect of FFA: OA 200 μM with IL-33 30 ng/ml
Protocol: as §2
(§3) Wt and Pla2g5-null mice received four doses of 25 ug of Alternaria in 20 ul of PBS intranasally on day 0, 3, 6 and 9 and euthanized 18h later in order to expand ILC2 prior to FACs sorting. Sorting of ILC2 (CD45+ Lin− (CD3, CD19, Ly6g, CD11c, CD11b, Nk1.1, FcεR1^−), Thy1.2+) was performed using a FACSDiva 8.0.1 cell sorter (BD bio-science). Purified ILC2 (>98%) were rested for 40 hours with 10 ng/mL rIL-2 and rIL-7 (R&D Systems, Minneapolis, Minn.) in a 96 well around bottom plates (20000 cells per well). Prior to stimulation, the medium was changed to fresh medium. ILC2 were cultured with 30 ng/mL rIL-33 (R&D Systems), 200 μM Linoleic Acid (Cayman Chemical) or 200 μM Oleic Acid (Cayman Chemical)^22 or all together for 8h. For intracellular cytokine staining, 1 μl/mL of Golgi Plug (BD Bioscience) was added to ILC2 6h before collection for FACs analysis.

Pla2g5-null mice = assay: IL-33-induced pulmonary inflammation (intranasal r-IL-33 with or without LA/OA) in Pla2g5-null mice; format: in vivo, mouse; settings: for IL-33-induced eosinophilia (numbers of eosinophils), effect of FFA given with IL-33 / pulmonary inflammation: intranasal, 4 doses in 10 days; for pulmonary inflammation: agent given alone
Protocol: as §1, §2

Wt ILC2 = assay: In-vitro stimulation of sorted Wt ILC2, intracellular IL-5 by flow cytometry; format: cell-based, mouse; settings: LA 200 μM, 8 h; for percentage of IL-5-expressing ILC2s: OA 200 μM or IL-33 30 ng/ml alone
Protocol: as §2, §3

Row | Molecule | IL-33-induced eosinophilia (numbers of eosinophils), effect of FFA given with IL-33 (C57/BL6 Wt mice; intranasal, 4 doses in 10 days) | pulmonary inflammation (C57/BL6 Wt mice; intranasal, 4 doses in 10 days) | percentage of IL-5-expressing ILC2s (Pla2g5-null ILC2) | IL-33-induced increase in IL-5 positive ILC2s, effect of FFA (Pla2g5-null ILC2) | IL-33-induced eosinophilia (numbers of eosinophils), effect of FFA given with IL-33 (Pla2g5-null mice) | pulmonary inflammation (Pla2g5-null mice) | percentage of IL-5-expressing ILC2s (Wt ILC2) | IL-33-induced expression of IL-5 by ILC2s, effect of FFA (Wt ILC2; OA 200 μM with IL-33 30 ng/ml) | numbers of eosinophils, ILC2s and Sca-1+ILC2 (C57/BL6 Wt mice; IL-33 i.n. over 10 days (100 ng/dose days 0, 3, 6, 9), homogenate lungs, flow cytometry) | macrophage activation (RELMα in macrophages) (C57/BL6 Wt mice; exogenous IL-33 for 10 days) | numbers of eosinophils, ILC2 and Sca-1+ILC2 (Pla2g5-null mice; IL-33 i.n. over 10 days, compared with Wt controls) | macrophage activation (RELMα in macrophages) (Pla2g5-null mice; exogenous IL-33 for 10 days)
1 | CCCCC/C=C\C/C=C\CCCCCCCC(=O)O [LA, linoleic acid] | sharp potentiation | Neither LA nor OA alone caused pulmonary inflammation | Neither LA nor OA induced significant IL-5 expression | suppressed | failed to potentiate | Neither LA nor OA alone caused pulmonary inflammation | Neither LA nor OA induced significant IL-5 expression | significantly potentiated | – | – | – | –
2 | CCCCCCCC/C=C\CCCCCCCC(=O)O [OA, oleic acid] | – | Neither LA nor OA alone caused pulmonary inflammation | Neither LA nor OA induced significant IL-5 expression | inactive | substantially enhance | Neither LA nor OA alone caused pulmonary inflammation | Neither LA nor OA induced significant IL-5 expression | – | – | – | – | –
3 | B1 | – | induces | significantly increased | – | – | insufficient | significantly increased | – | robustly increased | induced substantial macrophage activation | markedly diminished | markedly impaired

Reference: US11273176B2, “Use of PLA2G5-deficient suppressive macrophages in suppression of inflammation” (THE BRIGHAM AND WOMEN'S HOSPITAL, INC., priority 2016, dated 2022)
